Data from patent US20260176320A1, “MODULATORS OF G-PROTEIN COUPLED RECEPTORS” (priority 2018, published 2026).
pEC50: −log10 of the molar value. Like-named read-outs stand apart in the source and are kept apart here.

What was measured:
Type in all cases: cell-based
[1] = target: T1, GLP-1R (Homo sapiens, UniProt P43220); test: PathHunter β-arrestin assay
How it was run: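 Agonist concentration–response (22 points, 2-fold steps, duplicates) was run on cells plated the previous day in BSA-supplemented (0.2%) medium. Stimulation lasted 90 min at 37 °C, followed by a 3 h dark incubation with detection reagent at room temperature and a luminescence read.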

[2] = target: T2, GIP-R (Homo sapiens, UniProt P48546); test: HitHunter cAMP assay (GIP-R); settings: cAMP; for Emax: read-out: (Emax) GIP-R
T2 sequence (P48546 22-466): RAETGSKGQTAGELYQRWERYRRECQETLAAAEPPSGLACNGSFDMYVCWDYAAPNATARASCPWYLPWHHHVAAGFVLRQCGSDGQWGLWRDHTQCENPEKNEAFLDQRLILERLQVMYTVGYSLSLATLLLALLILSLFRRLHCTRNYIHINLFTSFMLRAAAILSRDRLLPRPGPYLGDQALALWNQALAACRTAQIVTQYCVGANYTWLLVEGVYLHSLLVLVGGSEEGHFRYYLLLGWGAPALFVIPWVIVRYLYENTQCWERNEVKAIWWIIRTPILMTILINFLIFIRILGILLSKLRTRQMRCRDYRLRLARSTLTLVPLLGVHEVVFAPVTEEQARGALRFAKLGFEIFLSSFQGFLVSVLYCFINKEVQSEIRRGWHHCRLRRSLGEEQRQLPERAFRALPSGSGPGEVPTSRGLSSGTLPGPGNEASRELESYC
How it was run: (§1)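 Cells were resuspended in HBSS plus HEPES, IBMX (625 μM) and BSA, then dispensed with antibody at 10,000 per well. Agonists followed as 22-point twofold series, 30 min at room temperature. Antibody reagent and detection steps ran 1 h and overnight in the dark before luminescence.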

[3] = target: T1, GLP-1R; test: HitHunter cAMP assay (GLP-1R); settings: cAMP; for Emax: read-out: (Emax) GLP-1R
How it was run: as §1

[4] = PathHunter β-arrestin assay, read-out: β-arrestin activity EC50
[5] = Table 3, read-out: EC50 GIP-R/nM
[6] = Table 3A, read-out: EC50 GIP-R/nM
[7] = Table 3, read-out: EC50 GLP-1R/nM
[8] = Table 3A, read-out: EC50 GLP-1R/nM

T1 sequence (P43220 24-463): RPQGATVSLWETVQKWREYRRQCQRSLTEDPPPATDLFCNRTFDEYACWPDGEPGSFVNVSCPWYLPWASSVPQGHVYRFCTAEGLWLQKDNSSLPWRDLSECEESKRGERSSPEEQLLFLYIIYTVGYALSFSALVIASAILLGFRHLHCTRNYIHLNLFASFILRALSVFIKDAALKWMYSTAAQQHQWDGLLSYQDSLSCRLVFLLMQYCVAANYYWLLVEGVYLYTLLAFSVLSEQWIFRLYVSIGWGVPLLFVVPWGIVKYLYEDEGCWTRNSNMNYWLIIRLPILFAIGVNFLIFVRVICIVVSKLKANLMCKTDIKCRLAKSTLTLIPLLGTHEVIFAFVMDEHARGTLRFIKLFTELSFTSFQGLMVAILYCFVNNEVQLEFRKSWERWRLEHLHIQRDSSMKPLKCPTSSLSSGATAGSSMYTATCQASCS

Row | SMILES | pEC50 [1, 4] | Emax ([2]; Table 3) | EC50 [2, 5] | Emax ([2]; Table 3A) | EC50 [2, 6] | Emax ([3]; Table 3) | EC50 [3, 7] | Emax ([3]; Table 3A) | EC50 [3, 8] | pEC50 [1] | EC50 ([2]; EC50 GIP-R/nM, Table 3) | EC50 ([2]; read-out: EC50 GIP-R/nM, Table 3A) | EC50 ([3]; EC50 GLP-1R/nM, Table 3) | EC50 ([3]; EC50 GLP-1R/nM, Table 3A)
1 | CCCCCCCCCCCCCCCC(=O)N[C@@H](CCC(=O)NCCCC[C@H](NC(=O)[C@H](CO)NC(=O)[C@@H]1CCCN1C(=O)[C@@H]1CCCN1C(=O)[C@@H]1CCCN1C(=O)[C@H](C)NC(=O)CNC(=O)[C@H](CO)NC(=O)[C@H](CO)NC(=O)[C@@H]1CCCN1C(=O)CNC(=O)CNC(=O)[C@H](C)NC(=O)[C@H](CC(C)C)NC(=O)[C@H](CC(C)C)NC(=O)[C@H](Cc1c[nH]c2ccccc12)NC(=O)[C@H](CC(N)=O)NC(=O)[C@@H](NC(=O)[C@H](Cc1ccccc1)NC(=O)[C@H](CCC(=O)O)NC(=O)C(C)(C)NC(=O)[C@H](C)NC(=O)[C@H](C)NC(=O)[C@H](CCC(N)=O)NC(=O)[C@H](CCCCN)NC(=O)[C@H](CC(=O)O)NC(=O)[C@H](CC(C)C)NC(=O)[C@H](Cc1ccc(O)cc1)NC(=O)[C@@H](NC(=O)[C@H](CO)NC(=O)[C@H](Cc1ccc(O)cc1)NC(=O)[C@H](CC(=O)O)NC(=O)[C@H](CO)NC(=O)[C@@H](NC(=O)[C@H](Cc1ccccc1)NC(=O)[C@@H](NC(=O)CNC(=O)[C@H](CCC(=O)O)NC(=O)CSCC(=O)NCCN1CCCNC1=O)[C@@H](C)O)[C@@H](C)O)[C@@H](C)CC)C(C)C)C(N)=O)C(=O)O [Compound 31] | < 6.00 | 37% | 10 to 100 nM | 37% | 10 to 100 nM | 102% | 1 to 10 nM | 102% | 1 to 10 nM | – | – | – | – | –
2 | CCCCCCCCCCCCCCCC(=O)N[C@@H](CCC(=O)NCCCC[C@H](NC(=O)[C@H](CO)NC(=O)[C@@H]1CCCN1C(=O)[C@@H]1CCCN1C(=O)[C@@H]1CCCN1C(=O)[C@H](C)NC(=O)CNC(=O)[C@H](CO)NC(=O)[C@H](CO)NC(=O)[C@@H]1CCCN1C(=O)CNC(=O)CNC(=O)[C@H](C)NC(=O)[C@H](CC(C)C)NC(=O)[C@H](CC(C)C)NC(=O)[C@H](Cc1c[nH]c2ccccc12)NC(=O)[C@H](CC(N)=O)NC(=O)[C@@H](NC(=O)[C@H](Cc1ccccc1)NC(=O)[C@H](CCC(=O)O)NC(=O)C(C)(C)NC(=O)[C@H](C)NC(=O)[C@H](C)NC(=O)[C@H](CCC(N)=O)NC(=O)[C@H](CCCCN)NC(=O)[C@H](CC(=O)O)NC(=O)[C@H](CC(C)C)NC(=O)[C@H](Cc1ccc(O)cc1)NC(=O)[C@@H](NC(=O)[C@H](CO)NC(=O)[C@H](Cc1ccc(O)cc1)NC(=O)[C@H](CC(=O)O)NC(=O)[C@H](CO)NC(=O)[C@@H](NC(=O)[C@H](Cc1ccccc1)NC(=O)[C@@H](NC(=O)CNC(=O)[C@H](CCC(=O)O)NC(=O)CSCC(=O)NCCN1CCNCC1=O)[C@@H](C)O)[C@@H](C)O)[C@@H](C)CC)C(C)C)C(N)=O)C(=O)O [Compound 33] | < 6.00 | 43% | 10 to 100 nM | 43% | 10 to 100 nM | 100% | 0.1 to 1 nM | 100% | 0.1 to 1 nM | – | – | – | – | –
3 | CCCCCCCCCCCCCCCC(=O)N[C@@H](CCC(=O)NCCCC[C@H](NC(=O)[C@H](CO)NC(=O)[C@@H]1CCCN1C(=O)[C@@H]1CCCN1C(=O)[C@@H]1CCCN1C(=O)[C@H](C)NC(=O)CNC(=O)[C@H](CO)NC(=O)[C@H](CO)NC(=O)[C@@H]1CCCN1C(=O)CNC(=O)CNC(=O)[C@H](C)NC(=O)[C@H](CC(C)C)NC(=O)[C@H](CC(C)C)NC(=O)[C@H](Cc1c[nH]c2ccccc12)NC(=O)[C@H](CC(N)=O)NC(=O)[C@@H](NC(=O)[C@H](Cc1ccccc1)NC(=O)[C@H](CCC(=O)O)NC(=O)C(C)(C)NC(=O)[C@H](C)NC(=O)[C@H](C)NC(=O)[C@H](CCC(N)=O)NC(=O)[C@H](CCCCN)NC(=O)[C@H](CC(=O)O)NC(=O)[C@H](CC(C)C)NC(=O)[C@H](Cc1ccc(O)cc1)NC(=O)[C@@H](NC(=O)[C@H](CO)NC(=O)[C@H](Cc1ccc(O)cc1)NC(=O)[C@H](CC(=O)O)NC(=O)[C@H](CO)NC(=O)[C@@H](NC(=O)[C@H](Cc1ccccc1)NC(=O)[C@@H](NC(=O)CNC(=O)[C@H](CCC(=O)O)NC(=O)CSCC(=O)NCCN1CC(=O)NC1=O)[C@@H](C)O)[C@@H](C)O)[C@@H](C)CC)C(C)C)C(N)=O)C(=O)O [Compound 34] | < 6.00 | 20 to 38% | 1 to 10 nM | 20 to 38% | 1 to 100 nM | 107% | 0.1 to 1 nM | 107% | 0.1 to 1 nM | – | – | – | – | –
4 | CCCCCCCCCCCCCCCC(=O)N[C@@H](CCC(=O)NCCCC[C@H](NC(=O)[C@H](CO)NC(=O)[C@@H]1CCCN1C(=O)[C@@H]1CCCN1C(=O)[C@@H]1CCCN1C(=O)[C@H](C)NC(=O)CNC(=O)[C@H](CO)NC(=O)[C@H](CO)NC(=O)[C@@H]1CCCN1C(=O)CNC(=O)CNC(=O)[C@H](C)NC(=O)[C@H](CC(C)C)NC(=O)[C@H](CC(C)C)NC(=O)[C@H](Cc1c[nH]c2ccccc12)NC(=O)[C@H](CC(N)=O)NC(=O)[C@@H](NC(=O)[C@H](Cc1ccccc1)NC(=O)[C@H](CCC(=O)O)NC(=O)C(C)(C)NC(=O)[C@H](C)NC(=O)[C@H](C)NC(=O)[C@H](CCC(N)=O)NC(=O)[C@H](CCCCN)NC(=O)[C@H](CC(=O)O)NC(=O)[C@H](CC(C)C)NC(=O)[C@H](Cc1ccc(O)cc1)NC(=O)[C@@H](NC(=O)[C@H](CO)NC(=O)[C@H](Cc1ccc(O)cc1)NC(=O)[C@H](CC(=O)O)NC(=O)[C@H](CO)NC(=O)[C@@H](NC(=O)[C@H](Cc1ccccc1)NC(=O)[C@@H](NC(=O)CNC(=O)[C@H](CCC(=O)O)NC(=O)CSCC(=O)NCCN1CCC(C)(C)C1=O)[C@@H](C)O)[C@@H](C)O)[C@@H](C)CC)C(C)C)C(N)=O)C(=O)O [Compound 35] | – | 20 to 37% | – | 20 to 37% | – | 110% | – | 110% | – | < 6.00 | 1 to 10 nM | 1 to 100 nM | 0.1 to 1 nM | 0.1 to 1 nM
5 | CCCCCCCCCCCCCCCC(=O)N[C@@H](CCC(=O)NCCCC[C@H](NC(=O)[C@H](CO)NC(=O)[C@@H]1CCCN1C(=O)[C@@H]1CCCN1C(=O)[C@@H]1CCCN1C(=O)[C@H](C)NC(=O)CNC(=O)[C@H](CO)NC(=O)[C@H](CO)NC(=O)[C@@H]1CCCN1C(=O)CNC(=O)CNC(=O)[C@H](C)NC(=O)[C@H](CC(C)C)NC(=O)[C@H](CC(C)C)NC(=O)[C@H](Cc1c[nH]c2ccccc12)NC(=O)[C@H](CC(N)=O)NC(=O)[C@@H](NC(=O)[C@H](Cc1ccccc1)NC(=O)[C@H](CCC(=O)O)NC(=O)C(C)(C)NC(=O)[C@H](C)NC(=O)[C@H](C)NC(=O)[C@H](CCC(N)=O)NC(=O)[C@H](CCCCN)NC(=O)[C@H](CC(=O)O)NC(=O)[C@H](CC(C)C)NC(=O)[C@H](Cc1ccc(O)cc1)NC(=O)[C@@H](NC(=O)[C@H](CO)NC(=O)[C@H](Cc1ccc(O)cc1)NC(=O)[C@H](CC(=O)O)NC(=O)[C@H](CO)NC(=O)[C@@H](NC(=O)[C@H](Cc1ccccc1)NC(=O)[C@@H](NC(=O)CNC(=O)[C@H](CCC(=O)O)NC(=O)CSCC(=O)NCCN1CCSCC1=O)[C@@H](C)O)[C@@H](C)O)[C@@H](C)CC)C(C)C)C(N)=O)C(=O)O [Compound 36] | < 6.00 | 51 to 75% | 0.1 to 10 nM | 51 to 75% | 0.1 to 10 nM | 108% | < 1 nM | 108% | < 1 nM | – | – | – | – | –
6 | CCCCCCCCCCCCCCCC(=O)N[C@@H](CCC(=O)NCCCC[C@H](NC(=O)[C@H](CO)NC(=O)[C@@H]1CCCN1C(=O)[C@@H]1CCCN1C(=O)[C@@H]1CCCN1C(=O)[C@H](C)NC(=O)CNC(=O)[C@H](CO)NC(=O)[C@H](CO)NC(=O)[C@@H]1CCCN1C(=O)CNC(=O)CNC(=O)[C@H](C)NC(=O)[C@H](CC(C)C)NC(=O)[C@H](CC(C)C)NC(=O)[C@H](Cc1c[nH]c2ccccc12)NC(=O)[C@H](CC(N)=O)NC(=O)[C@@H](NC(=O)[C@H](Cc1ccccc1)NC(=O)[C@H](CCC(=O)O)NC(=O)C(C)(C)NC(=O)[C@H](C)NC(=O)[C@H](C)NC(=O)[C@H](CCC(N)=O)NC(=O)[C@H](CCCCN)NC(=O)[C@H](CC(=O)O)NC(=O)[C@H](CC(C)C)NC(=O)[C@H](Cc1ccc(O)cc1)NC(=O)[C@@H](NC(=O)[C@H](CO)NC(=O)[C@H](Cc1ccc(O)cc1)NC(=O)[C@H](CC(=O)O)NC(=O)[C@H](CO)NC(=O)[C@@H](NC(=O)[C@H](Cc1ccccc1)NC(=O)[C@@H](NC(=O)CNC(=O)[C@H](CCC(=O)O)NC(=O)CSCC(=O)NCCN1CCNC(=O)C1)[C@@H](C)O)[C@@H](C)O)[C@@H](C)CC)C(C)C)C(N)=O)C(=O)O [Compound 37] | < 6.00 | 10 to 21% | 1 to 10 nM | 10 to 21% | – | 110% | < 1 nM | 110% | < 1 nM | – | – | – | – | –
